In patent publication US9080199B2, “Method to generate novel bioactive molecules” (priority 2010, dated 2015):
Entries after “also recorded” stand apart in the source; their conditions may differ.

System: S. aureus N315 (MRSA N315)
Assay: Disk / agar diffusion bioactivity test (zone of inhibition) against S. aureus N315
Type: cell-based, Staphylococcus aureus
Settings: clavu7 extract compounds/fractions, 25-30 μL on 6 mm filter disks on N315 lawn on TSA, 16-20 hours at 30° C.
Description: The two compounds were separated from one another by re-injecting the 11 to 11.5 minute fraction into the LC-MS system using an isocratic mobile phase of 30% methanol in water. Once separated, the two compounds were collected, concentrated by evaporating the solvent to a total volume of approximately 50 μL, and tested against S. aureus N315 to definitively determine which one is bioactive. This turned out to be m/z=215, which was identified as holomycin. Bioactivity testing is carried out by first spreading approximately 150 μL of an OD600˜0.01 S. aureus N315 culture in TSB onto a TSA plate to create a lawn of S. aureus N315. Next, 25-30 μL of each sample is deposited onto 6 mm sterile filter disks. The disks are allowed to dry and then placed onto the S. aureus N315 lawn. This plate is incubated for 16-20 hours at 30° C., after which it was examined for the appearance of a zone of inhibition around the disks.
The methanol sample was then concentrated further using a vacuum centrifuge (speed-vac or speed-yap) until approximately 100 μL remained. A 25 μL aliquot was then used to test for bioactivity against MRSA N315. This aliquot, which has not yet been fractionated on an HPLC system, is called a “crude extract.” About 40-50 μL of the concentrated sample was also injected into an HPLC-MS system. […]

CC(=O)Nc1c2sscc-2[nH]c1=O [holomycin]
bioactivity against S. aureus N315 (zone of inhibition around disks): inhibits growth; also recorded: bioactive
bioactivity against S. aureus N315 (zone of inhibition around disks) (listed as m/z=215 compound): bioactive
